{
  "source": "ChEMBL document CHEMBL1201862",
  "about": "“PubChem BioAssay data set” (2004)",
  "experiment_in_all_cases": "NCI-60 cell line screen, 48 h",
  "key": {"U-251": {"tested_on": "U-251"}, "MCF7": {"tested_on": "MCF7"}, "NCI-H460": {"tested_on": "NCI-H460"}, "MDA-MB-231": {"tested_on": "MDA-MB-231"}, "NCI/ADR-RES": {"tested_on": "NCI/ADR-RES"}, "LOX IMVI": {"tested_on": "LOX IMVI"}, "UACC-257": {"tested_on": "UACC-257"}, "HCT-116": {"tested_on": "HCT-116"}, "SK-MEL-28": {"tested_on": "SK-MEL-28"}, "NCI-H23": {"tested_on": "NCI-H23"}, "SF-295": {"tested_on": "SF-295"}, "MDA-MB-435": {"tested_on": "MDA-MB-435"}, "MDA-N": {"tested_on": "MDA-N"}, "SK-OV-3": {"tested_on": "SK-OV-3"}, "SNB-19": {"tested_on": "SNB-19"}, "SW-620": {"tested_on": "SW-620"}, "SN12C": {"tested_on": "SN12C"}, "OVCAR-3": {"tested_on": "OVCAR-3"}, "SK-MEL-2": {"tested_on": "SK-MEL-2"}, "A498": {"tested_on": "A498"}, "ACHN": {"tested_on": "ACHN"}, "M14": {"tested_on": "M14"}, "HOP-62": {"tested_on": "HOP-62"}, "OVCAR-4": {"tested_on": "OVCAR-4"}, "SNB-75": {"tested_on": "SNB-75"}, "OVCAR-5": {"tested_on": "OVCAR-5"}, "CAKI-1": {"tested_on": "CAKI-1"}, "PC-3": {"tested_on": "PC-3"}, "A549": {"tested_on": "A549"}, "HOP-92": {"tested_on": "HOP-92"}, "RXF 393": {"tested_on": "RXF 393"}, "SF-268": {"tested_on": "SF-268"}, "OVCAR-8": {"tested_on": "OVCAR-8"}, "MOLT-4": {"tested_on": "MOLT-4"}, "KM12": {"tested_on": "KM12"}, "Hs-578T": {"tested_on": "Hs-578T"}, "SR": {"tested_on": "SR"}, "BT-549": {"tested_on": "BT-549"}, "SK-MEL-5": {"tested_on": "SK-MEL-5"}, "T47D": {"tested_on": "T47D"}, "Malme-3M": {"tested_on": "Malme-3M"}, "IGROV-1": {"tested_on": "IGROV-1"}, "SF-539": {"tested_on": "SF-539"}, "NCI-H522": {"tested_on": "NCI-H522"}, "UO-31": {"tested_on": "UO-31"}, "DU-145": {"tested_on": "DU-145"}, "K562": {"tested_on": "K562"}, "EKVX": {"tested_on": "EKVX"}, "HL-60": {"tested_on": "HL-60"}, "HT-29": {"tested_on": "HT-29"}, "HCT-15": {"tested_on": "HCT-15"}, "UACC-62": {"tested_on": "UACC-62"}, "NCI-H226": {"tested_on": "NCI-H226"}, "TK-10": {"tested_on": "TK-10"}, "786-0": {"tested_on": "786-0"}, "COLO 205": {"tested_on": "COLO 205"}, "CCRF-CEM": {"tested_on": "CCRF-CEM"}, "RPMI-8226": {"tested_on": "RPMI-8226"}},
  "note": "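Method: 48-hour compound exposure of cells in 96-well plates, five concentrations, linear interpolation of endpoints. At the GI50, growth is halved.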 Active and inactive are the calls of the source. Cut-off read from the data, not from the text of the source: active = GI50 up to about 1.1 µM and inactive = higher.",
  "data": [
    {"molecule": "Cc1cc(Cc2cc(C)cc(C(C)(C)C)c2O)c(O)c(Cc2cc(C)cc(C(C)(C)C)c2O)c1", "values": [
      {"measurement": "GI50", "setting": "U-251", "result": "2.7 µM (inactive)"},
      {"measurement": "GI50", "setting": "MCF7", "result": "2.34 µM (inactive)"},
      {"measurement": "GI50", "setting": "NCI-H460", "result": "1.57 µM (inactive)"},
      {"measurement": "GI50", "setting": "MDA-MB-231", "result": "1.79 µM (inactive)"},
      {"measurement": "GI50", "setting": "NCI/ADR-RES", "result": "2.85 µM (inactive)"},
      {"measurement": "GI50", "setting": "LOX IMVI", "result": "3.1 µM (inactive)"},
      {"measurement": "GI50", "setting": "UACC-257", "result": "2.29 µM (inactive)"},
      {"measurement": "GI50", "setting": "HCT-116", "result": "1.92 µM (inactive)"},
      {"measurement": "GI50", "setting": "SK-MEL-28", "result": "4.14 µM (inactive)"},
      {"measurement": "GI50", "setting": "NCI-H23", "result": "1.66 µM (inactive)"},
      {"measurement": "GI50", "setting": "SF-295", "result": "3.18 µM (inactive)"},
      {"measurement": "GI50", "setting": "MDA-MB-435", "result": "3.12 µM (inactive)"},
      {"measurement": "GI50", "setting": "MDA-N", "result": "3.66 µM (inactive)"},
      {"measurement": "GI50", "setting": "SK-OV-3", "result": "3.33 µM (inactive)"},
      {"measurement": "GI50", "setting": "SNB-19", "result": "4.11 µM (inactive)"},
      {"measurement": "GI50", "setting": "SW-620", "result": "3.34 µM (inactive)"},
      {"measurement": "GI50", "setting": "SN12C", "result": "2.34 µM (inactive)"},
      {"measurement": "GI50", "setting": "OVCAR-3", "result": "2.69 µM (inactive)"},
      {"measurement": "GI50", "setting": "SK-MEL-2", "result": "2.16 µM (inactive)"},
      {"measurement": "GI50", "setting": "A498", "result": "2.39 µM (inactive)"},
      {"measurement": "GI50", "setting": "ACHN", "result": "3.37 µM (inactive)"},
      {"measurement": "GI50", "setting": "M14", "result": "2.64 µM (inactive)"},
      {"measurement": "GI50", "setting": "HOP-62", "result": "2.88 µM (inactive)"},
      {"measurement": "GI50", "setting": "OVCAR-4", "result": "4.05 µM (inactive)"},
      {"measurement": "GI50", "setting": "SNB-75", "result": "4.62 µM (inactive)"},
      {"measurement": "GI50", "setting": "OVCAR-5", "result": "3.48 µM (inactive)"},
      {"measurement": "GI50", "setting": "CAKI-1", "result": "4.08 µM (inactive)"},
      {"measurement": "GI50", "setting": "PC-3", "result": "2.75 µM (inactive)"},
      {"measurement": "GI50", "setting": "A549", "result": "3.06 µM (inactive)"},
      {"measurement": "GI50", "setting": "HOP-92", "result": "2.24 µM (inactive)"},
      {"measurement": "GI50", "setting": "RXF 393", "result": "2.82 µM (inactive)"},
      {"measurement": "GI50", "setting": "SF-268", "result": "1.7 µM (inactive)"},
      {"measurement": "GI50", "setting": "OVCAR-8", "result": "2.75 µM (inactive)"},
      {"measurement": "GI50", "setting": "MOLT-4", "result": "1.41 µM (inactive)"},
      {"measurement": "GI50", "setting": "KM12", "result": "2.91 µM (inactive)"},
      {"measurement": "GI50", "setting": "Hs-578T", "result": "1.67 µM (inactive)"},
      {"measurement": "GI50", "setting": "SR", "result": "2.54 µM (inactive)"},
      {"measurement": "GI50", "setting": "BT-549", "result": "1.87 µM (inactive)"},
      {"measurement": "GI50", "setting": "SK-MEL-5", "result": "1.08 µM (active)"},
      {"measurement": "GI50", "setting": "T47D", "result": "3.01 µM (inactive)"},
      {"measurement": "GI50", "setting": "Malme-3M", "result": "2 µM (inactive)"},
      {"measurement": "GI50", "setting": "IGROV-1", "result": "3.25 µM (inactive)"},
      {"measurement": "GI50", "setting": "SF-539", "result": "2.51 µM (inactive)"},
      {"measurement": "GI50", "setting": "NCI-H522", "result": "0.931 µM (active)"},
      {"measurement": "GI50", "setting": "UO-31", "result": "2.98 µM (inactive)"},
      {"measurement": "GI50", "setting": "DU-145", "result": "3.4 µM (inactive)"},
      {"measurement": "GI50", "setting": "K562", "result": "0.931 µM (active)"},
      {"measurement": "GI50", "setting": "EKVX", "result": "2.82 µM (inactive)"},
      {"measurement": "GI50", "setting": "HL-60", "result": "2.51 µM (inactive)"},
      {"measurement": "GI50", "setting": "HT-29", "result": "2.55 µM (inactive)"},
      {"measurement": "GI50", "setting": "HCT-15", "result": 2.24, "unit": "µM"},
      {"measurement": "GI50", "setting": "UACC-62", "result": "1.86 µM (inactive)"},
      {"measurement": "GI50", "setting": "NCI-H226", "result": "3.24 µM (inactive)"},
      {"measurement": "GI50", "setting": "TK-10", "result": "3.03 µM (inactive)"},
      {"measurement": "GI50", "setting": "786-0", "result": "3.15 µM (inactive)"},
      {"measurement": "GI50", "setting": "COLO 205", "result": "4.53 µM (inactive)"},
      {"measurement": "GI50", "setting": "CCRF-CEM", "result": "1.73 µM (inactive)"},
      {"measurement": "GI50", "setting": "RPMI-8226", "result": "0.724 µM (active)"}
    ]}
  ]
}
